Test results as given in patent US20140296149A1, “Compositions and Methods for the Treatment of Cardiac Surgery-Associated Acute Kidney Injury with Annexin A1 Peptide” (priority 2010, published 2014).
No end group written: not given here.

Tests used:
[1] = test system: splanchnic artery occlusion and reperfusion injury; details: by affecting neutrophil migration; cited from earlier work
[2] = test system: experimental myocardial ischemia-reperfusion; details: by attenuating neutrophil migration; cited from earlier work
rat model of CPB/DHCA = assay: Preclinical rat model of CPB/DHCA, cardiac-surgery associated AKI (Example I, i.p.); type: in vivo
Experimental: FIGS. 1A-B. ANXA1 short peptide (ANXA1sp) treatment ameliorates proximal tubular apoptosis and inhibits the activity of caspase-3 induced by ischemia-reperfusion injury following deep hypothermia circulatory arrest (DHCA). Quantification of apoptosis was determined by terminal deoxynucleotidyl transferase dUTP nick end labeling (TUNEL) staining (A) and the activity of caspase-3 analyzed by Western blot (B) at 24 h after DHCA in rats either treated with ANXA1sp or 0.1% DMSO (vehicle) i.p. Results are shown as mean±SD of six animals in each group. *p<0.002.
FIGS. 2A-B. Effect of treatment of ANXA1sp after ischemia-reperfusion injury on cell apoptosis and cell proliferation. (A) Treatment with ANXA1sp inhibits apoptosis (TUNEL staining) and enhances proliferation (PCNA staining) induced by ischemia-reperfusion injury following deep hypothermia circulatory arrest (DHCA). Representative sections from 24 hrs after DHCA in rats treated with either ANXA1sp or 0.1% DMSO (vehicle) (original magnification 300×). (B) ANXA1sp tilts the balance of proximal tubular cell fate toward survival after ischemia-reperfusion injury. A ratio of proliferation/apoptosis (TUNEL) was calculated in proximal tubules 24 hrs after DHCA in rats treated with either ANXA1sp or 0.1% DMSO (vehicle). Results were shown as mean±SD of six rats in each group. *p<0.005 versus vehicle.
FIGS. 3A-C. (A) Protein levels of neutrophil gelatinase associated lipocalin (NGAL) analyzed by Western blot in the kidney 24 hrs after reperfusion following cardiopulmonary bypass (CPB) and deep hypothermic circulatory arrest (DHCA) in vehicle treated animals (Vehicle) versus ANXA1sp treated animals (ANXA1sp). Results are shown as mean±SD. (n=6). *p<0.01 vs. Vehicle. (B) Effect of ANXA1sp on renal NGAL protein levels. Results are representative of six independent experiments in each group. (C) The location of NGAL protein detected by immunohistochemistry in the kidney 24 hrs after reperfusion following DHCA in vehicle treated animals (Vehicle) versus ANXA1sp treated animals (ANXA1sp). NGAL protein was visualized with the NGAL antibody. NGAL positive staining was abundant in ANXA1sp treated animals and mainly located in the proximal tubule cells (red color) (original magnification 200×).
FIG. 4. ANXA1sp treatment represses the renal levels of TNF-α induced by ischemia-reperfusion injury following deep hypothermia circulatory arrest (DHCA) analyzed by ELISA in the kidney 24 hrs after reperfusion in rats either treated with ANXA1sp (open bar, n=6) or vehicle (0.1% DMSO) i.p. (filled bar, n=6). Results are expressed as mean value±SD; *p<0.05 vs. Vehicle.
(§1) NGAL positive staining was abundant in ANXA1sp treated animals and mainly located in the proximal tubule cells (FIG. 3C).

rat model of CPB/CA = assay: Early renal biomarker GST-μ in rat urine, preclinical model of CPB/CA; type: in vivo; details: setting of myocardial ischemia/reperfusion, n=3, vs vehicle
Text: FIG. 5. […] Values presented are means±SD; n=3; *p<0.05 vs. Vehicle.
as §1

[3] = test system: Male Sprague-Dawley rats, CPB/DHCA; assay: Rat CPB/DHCA, ANXA1sp 2 mg/kg i.v. (Example II); type: in vivo
Experimental: Male Sprague-Dawley rats were prepared for 60 min of DHCA at 18° C. and received either vehicle or ANXA1 sp (2 mg/kg) i.v. at one hour before CPB and one hour after reperfusion. Renal tissue and serum samples were harvested at 3 (n=5), 6 (n=3), and 24 hours (n=3) i.v. after CPB/DHCA. The time course of renal activity of NF-kappa B was determined by a rat specific ELISA kit. Changes of renal and serum levels of the proinflammatory cytokines tumor necrosis factor-alpha (TNF-α) and interleukin (IL)-6 as well as myeloperoxidase (MPO) were measured by ELISA. Changes of renal levels of activated caspase-3 were determined by Western blot. At 24 hours after DHCA, apoptotic proximal tubular cells was identified by TUNEL and quantified by counting the numbers of apoptotic proximal tubular cells in 5 representative renal areas.

[4] = test system: myocardial ischemia-reperfusion; details: several in vitro and in vivo preclinical models; cited from earlier work
myocardial I/R injury = details: cited from earlier work
[5] = 6 and 24 h after DHCA, vs vehicle

Q: With “Ac-Ala-Met-Val-Ser-Glu-Phe-Leu-Lys-Gln-Ala-Trp Phe-Ile-Glu-Asn-Glu-Glu-Gln-Glu-Tyr-Val-Gln-Thr-Val-Lys (Ac-AMVSEFLKQAWFIENEEQEYVQTVK) [Ac2-26]” as the molecule, how does the “protection against splanchnic artery occlusion and reperfusion injury” value [1] read?
A: protects

Q: What about the “protection against experimental myocardial ischemia-reperfusion” value [2] of the same molecule?
A: protects

Q: For Ac-Gln-Ala-Trp [ANXA1sp], which “numbers of proximal tubular cells (apoptosis, TUNEL staining)” value (rat model of CPB/DHCA; 24 h after DHCA, i.p., vs vehicle, n=6) is on record?
A: reduced numbers

Q: And the “tubule cell proliferation (PCNA staining)” value (rat model of CPB/DHCA; 24 hrs after DHCA, vs vehicle)?
A: enhanced

Q: And the “expression of NGAL in the kidney (Western blot)” value (rat model of CPB/DHCA; 24 hrs after reperfusion following CPB and DHCA, vs vehicle)?
A: significantly higher expression

Q: What about the “levels of TNF-α protein in the kidney (ELISA)” value (rat model of CPB/DHCA; 24 hrs after reperfusion, i.p., vs vehicle) of the same molecule?
A: significantly lower levels

Q: What about the “activity of caspase-3 (Western blot)” value (rat model of CPB/DHCA; kidney, 24 h after DHCA, i.p., vs vehicle) of the same molecule?
A: lower activity

Q: What about the “NGAL positive staining (immunohistochemistry)” value (rat model of CPB/DHCA; kidney, 24 hrs after reperfusion, mainly located in proximal tubule cells) of the same molecule?
A: abundant

Q: What about the “balance of proximal tubular cell fate (ratio of proliferation/apoptosis)” value (rat model of CPB/DHCA; proximal tubules, 24 hrs after DHCA, vs vehicle) of the same molecule?
A: tilted the balance of proximal tubular cell fate toward survival

Q: And the “cardiac-surgery associated acute kidney injury (AKI)” value (rat model of CPB/DHCA; rat CPB/DHCA, vs vehicle (0.1% DMSO))?
A: significantly attenuates

Q: What about the “expression of GST-μ in rat urine” value (rat model of CPB/CA) of the same molecule?
A: significantly reduced expression

Q: What about the “AKI following CPB/DHCA” value [3] of the same molecule?
A: attenuates

Q: And the “renal activity of NF-kappa B (ELISA)” value ([3]; 3 and 6 hours after DHCA, vs vehicle)?
A: significant inhibition

Q: And the “renal levels of IL-6 (ELISA)” value [3, 5]?
A: significantly suppressed

Q: What about the “renal levels of MPO (ELISA)” value [3, 5] of the same molecule?
A: significantly suppressed

Q: What about the “numbers of apoptotic proximal tubular cells (TUNEL)” value ([3]; 24 h after DHCA, vs vehicle) of the same molecule?
A: reduced numbers

Q: And the “renal levels of TNF-α (ELISA)” value ([3]; 24 hours after DHCA, vs vehicle)?
A: significantly suppressed

Q: What about the “renal activity of caspase-3 (Western blot)” value ([3]; different time points after DHCA, vs vehicle) of the same molecule?
A: significantly decreased

Q: And the “release of IL-6 in the serum” value ([3]; vs vehicle, data not shown)?
A: significantly reduced release

Q: And the “release of MPO in the serum” value ([3]; vs vehicle, data not shown)?
A: significantly reduced release

Q: What about the “release of TNF-α in the serum” value ([3]; vs vehicle, data not shown) of the same molecule?
A: significantly reduced release

Q: What about the cardioprotective efficacy [4] of the same molecule?
A: robust cardioprotective efficacy

B1: ANXA1: 37 kDa protein, member of the annexin superfamily; about 346 amino acids (SEQ ID NO:2) (protein, listed as Homo sapiens)
chain: MAMVSEFLKQAWFIENEEQEYVQTVKSSKGGPGSAVSPYPTFNPSSDVAALHKAIMVKGVDEATIIDILTKRNNAQRQQIKAAYLQETGKPLDETLKKALTGHLEEVVLALLKTPAQFDADELRAAMKGLGTDEDTLIEILASRTNKEIRDINRVYREELKRDLAKDITSDTSGDFRNALLSLAKGDRSEDFGVNEDLADSDARALYEAGERRKGTDVNVFNTILTTRSYPQLRRVFQKYTKYSKHDMNKVLDLELKGDIEKCLTAIVKCATSKPAFFAEKLHQAMKGVGTRHKALIRIMVSRSEIDMNDIKAFYQKMYGISLCQAILDETKGDYEKILVALCGGN
Q: With B1 as the molecule, how does the leukocyte-dependent myocardial damage (myocardial I/R injury; myocardial I/R injury) read?
A: reduces

Q: And the “numbers of extravasated leukocytes” value (myocardial I/R injury; rats treated with ANXA1)?
A: significantly lower numbers
